# Molecular target: recombinant SARS-CoV-2 M^pro (Severe acute respiratory syndrome coronavirus 2 (2019-nCoV) (SARS-CoV-2), UniProt P0DTD1)
# Assay: Inhibition of SARS-CoV-2 M^pro enzyme activity (fluorescent substrate assay)
# Format: biochemical
# Conditions: inhibition of SARS-CoV-2 M^pro enzyme activity; values given in μM; read-out: IC50
row,SMILES,IC50
1,COC[C@@H](NC(=O)C1CCCC(F)(F)C1)C(=O)N[C@H](Cc1ccccc1)C(=O)C(=O)NCc1nnc(C)o1 (stereo partly shown) [Compound 559],> 2.5 µM
2,COC[C@@H](NC(=O)C1CCCC(F)(F)C1)C(=O)N[C@H](Cc1ccccc1)C(=O)C(=O)NCc1ncon1 (stereo partly shown) [Compound 562],> 2.5 µM
3,COC[C@@H](NC(=O)C1CCCC(F)(F)C1)C(=O)N[C@H](Cc1ccccc1)C(=O)C(=O)NCc1ncno1 (stereo partly shown) [Compound 563],> 2.5 µM

# Same assay, conditions: inhibition of SARS-CoV-2 M^pro enzyme activity; values in nM; read-out: IC50
row,SMILES,IC50
1,O=C(Cn1cc(-c2cc(F)c(F)c(F)c2)cn1)N[C@H](Cc1ccccc1)C(=O)C(=O)NCc1nccs1 [Compound 504],0.0477 ± 0.0009 µM
2,O=C(Cn1cc(-c2c(F)ccc(F)c2F)cn1)N[C@H](Cc1ccccc1)C(=O)C(=O)NCc1nccs1 [Compound 505],0.239 ± 0.004 µM
3,O=C(Cn1cc(-c2cc(F)c(F)cc2F)cn1)N[C@H](Cc1ccccc1)C(=O)C(=O)NCc1nccs1 [Compound 506],0.105 ± 0.0029 µM
4,O=C(Cn1cc(-c2cc(F)ccc2F)cn1)N[C@H](Cc1ccccc1)C(=O)C(=O)NCc1nccs1 [Compound 507],0.0126 ± 0.0004 µM
5,Cc1nn(CC(=O)N[C@H](Cc2ccccc2)C(=O)C(=O)NCc2nccs2)c(C)c1C1CCC(F)(F)CC1 [Compound 509],0.151 ± 0.0066 µM
6,O=C(Cn1cc(C2CCC(F)(F)CC2)c(C(F)(F)F)n1)N[C@H](Cc1ccccc1)C(=O)C(=O)NCc1nccs1 [Compound 510],0.137 ± 0.0016 µM
7,"O=C(Cc1csc(C2CCC(F)(F)CC2)n1)N[C@H](Cc1ccccc1)C(=O)C(=O)NCc1nccs1 [Compound 511, (R)-3-(2-(2-(4,4-difluorocyclohexyl)thiazole-4-yl)acetamido)-2-oxo-4-phenyl-N-(thiazole-2-ylmethyl)butyramide]",0.0304 ± 0.0021 µM
8,O=C(NCc1nccs1)C(=O)[C@@H](Cc1ccccc1)NC(=O)C1(n2ccc(C3CCC(F)(F)CC3)n2)CC1 [Compound 512],0.0221 ± 0.0005 µM
9,O=C(Cn1cc(C2CCC(F)(F)CC2)cn1)N[C@H](Cc1ccccc1)C(=O)C(=O)NCc1nccs1 [Compound 513],0.0304 ± 0.0008 µM
10,N#Cc1cc(F)cc(-c2nc(CC(=O)N[C@H](Cc3ccccc3)C(=O)C(=O)NCc3nccs3)cs2)c1 [Compound 514],0.0568 ± 0.0004 µM
11,Cc1cc(-c2cc(Cl)cc(C#N)c2)nn1CC(=O)N[C@H](Cc1ccccc1)C(=O)C(=O)NCc1nccs1 [Compound 515],0.0262 ± 0.0003 µM
12,"O=C(Cc1noc(-c2ccc(F)c(F)c2)n1)N[C@H](Cc1ccccc1)C(=O)C(=O)NCc1nccs1 [Compound 516, (R)-3-(2-(5-(3,4-difluorophenyl)-1,2,4-oxadiazol-3-yl)acetylamino)-2-oxo-4-phenyl-N-(thiazole-2-ylmethyl)butyramide]",0.033 ± 0.0019 µM
13,Cc1cc(-c2cc(Cl)cc(C#N)c2)nn1C1(C(=O)N[C@H](Cc2ccccc2)C(=O)C(=O)NCc2nccs2)CC1 [Compound 517],0.0562 ± 0.0032 µM
14,"N#Cc1cc(F)cc(N2CC(=O)N(CC(=O)N[C@H](Cc3ccccc3)C(=O)C(=O)NCc3nccs3)C2=O)c1 [Compound 518, (R)-3-(2-(3-(3-cyano-5-fluorophenyl)-2,5-dioxoimidazolidin-1-yl)acetylamino)-2-oxo-4-phenyl-N-(thiazole-2-ylmethyl) butyramide]",0.2485 ± 0.0014 µM
15,O=C(CN1C(=O)CN(c2ccc(F)c(Cl)c2)C1=O)N[C@H](Cc1ccccc1)C(=O)C(=O)NCc1nccs1 [Compound 519],0.0327 ± 0.0031 µM
16,O=C(Cc1noc(-c2cc(F)ccc2F)n1)N[C@H](Cc1ccccc1)C(=O)C(=O)NCc1nccs1 [Compound 520],0.1613 ± 0.0012 µM
17,O=C(Cc1noc(-c2ccc(Cl)cc2F)n1)N[C@H](Cc1ccccc1)C(=O)C(=O)NCc1nccs1 [Compound 521],0.441 ± 0.0045 µM
18,O=C(CN1C(=O)CN(c2cc(F)c(F)c(F)c2)C1=O)N[C@H](Cc1ccccc1)C(=O)C(=O)NCc1nccs1 [Compound 522],0.0747 ± 0.0042 µM
19,O=C(CN1C(=O)CN(c2cc(F)cc(F)c2)C1=O)N[C@H](Cc1ccccc1)C(=O)C(=O)NCc1nccs1 [Compound 523],0.123 ± 0.0051 µM
20,O=C(Cc1noc(-c2ccc(F)c(C(F)(F)F)c2)n1)N[C@H](Cc1ccccc1)C(=O)C(=O)NCc1nccs1 [Compound 524],0.0328 ± 0.0032 µM

row,SMILES,IC50
1,O=C(CN1C(=O)CN(c2ccc(F)cc2)C1=O)N[C@H](Cc1ccccc1)C(=O)C(=O)NCc1nccs1 [Compound 525],0.0845 ± 0.0018 µM
2,O=C(Cc1noc(-c2ccc(F)c(Cl)c2)n1)N[C@H](Cc1ccccc1)C(=O)C(=O)NCc1nccs1 [Compound 526],0.0284 ± 0.0015 µM
3,O=C(CN1C(=O)CN(c2cccc(Cl)c2)C1=O)N[C@H](Cc1ccccc1)C(=O)C(=O)NCc1nccs1 [Compound 527],0.0443 ± 0.0011 µM
4,CC(C)(C(=O)N[C@H](Cc1ccccc1)C(=O)C(=O)NCc1nccs1)n1cc(-c2cccc(F)c2)cn1 [Compound 528],0.0508 ± 0.001 µM
5,CC(C)(C(=O)N[C@H](Cc1ccccc1)C(=O)C(=O)NCc1nccs1)n1cc(-c2cccc(OC(F)(F)F)c2)cn1 [Compound 529],0.2245 ± 0.0013 µM
6,O=C(Cn1nc(-c2ccc(F)cc2)cc1C(F)(F)F)N[C@H](Cc1ccccc1)C(=O)C(=O)NCc1nccs1 [Compound 530],0.0325 ± 0.0011 µM
7,O=C(NCc1nccs1)C(=O)[C@@H](Cc1ccccc1)NC(=O)n1nc(C(F)(F)F)cc1-c1ccc(F)cc1 [Compound 531],0.598 ± 0.0028 µM
8,"O=C(Cn1cc(-c2ccccc2F)nn1)N[C@H](Cc1ccccc1)C(=O)C(=O)NCc1nccs1 [Compound 532, (R)-3-(2-(4-(2-fluorophenyl)-1H-1,2,3-triazol-1-yl)acetamido)-2-oxo-4-phenyl-N-(thiazole-2-ylmethyl)butyramide]",0.6245 ± 0.0026 µM
9,O=C(Cc1noc(C2CCC(F)(F)CC2)n1)N[C@H](Cc1ccccc1)C(=O)C(=O)NCc1nccs1 [Compound 533],0.069 ± 0.0069 µM
10,CC[C@@H](NC(=O)C1CCC(F)(F)CC1)C(=O)N[C@H](Cc1ccccc1)C(=O)C(=O)NCc1nccs1 [Compound 535],0.0357 ± 0.00017 µM
11,CC(C)[C@@H](NC(=O)C1CCC(F)(F)CC1)C(=O)N[C@H](Cc1ccccc1)C(=O)C(=O)NCc1nccs1 [Compound 536],0.0248 ± 0.0003 µM
12,CC(C)(NC(=O)C1CCC(F)(F)CC1)C(=O)N[C@H](Cc1ccccc1)C(=O)C(=O)NCc1nccs1 [Compound 537],0.0895 ± 0.0015 µM
13,O=C(NCc1nccs1)C(=O)[C@@H](Cc1ccccc1)NC(=O)C1(NC(=O)C2CCC(F)(F)CC2)CC1 [Compound 538],0.0335 ± 0.0015 µM
14,O=C(NCc1nccs1)C(=O)[C@@H](Cc1ccccc1)NC(=O)C1(NC(=O)C2CCC(F)(F)CC2)CCC1 [Compound 539],0.0218 ± 0.0005 µM
15,O=C(NCc1nccs1)C(=O)[C@@H](Cc1ccccc1)NC(=O)C1(NC(=O)C2CCC(F)(F)CC2)CC(F)(F)C1 [Compound 540],0.0269 ± 0.0001 µM
16,O=C(NCc1nccs1)C(=O)[C@@H](Cc1ccccc1)NC(=O)C1(NC(=O)C2CCC(F)(F)CC2)CCCC1 [Compound 541],0.0518 ± 0.0014 µM
17,O=C(NCc1nccs1)C(=O)[C@@H](Cc1ccccc1)NC(=O)C1(NC(=O)C2CCC(F)(F)CC2)CCCCC1 [Compound 542],0.0524 ± 0.007 µM
18,O=C(NCc1nccs1)C(=O)[C@@H](Cc1ccccc1)NC(=O)[C@H](NC(=O)C1CCC(F)(F)CC1)C1CC1 [Compound 543],0.107 ± 0.0013 µM
19,COC[C@@H](NC(=O)C1CCCC(F)(F)C1)C(=O)N[C@H](Cc1ccccc1)C(=O)C(=O)NCc1cscn1 (stereo partly shown) [Compound 544],0.0225 ± 0.0009 µM
20,O=C(NCc1nccs1)C(=O)[C@@H](Cc1ccccc1)NC(=O)C1(NC(=O)C2CCCC(F)(F)C2)CC(F)(F)C1 (stereo partly shown) [Compound 545],0.0269 ± 0.0002 µM

row,SMILES,IC50
1,O=C(NCc1nccs1)C(=O)[C@@H](Cc1ccccc1)NC(=O)C1(NC(=O)C2CCC(F)(F)C2)CC(F)(F)C1 (stereo partly shown) [Compound 546],0.0717 ± 0.0071 µM
2,O=C(CC1CC(F)(F)C1)NC1(C(=O)N[C@H](Cc2ccccc2)C(=O)C(=O)NCc2nccs2)CC(F)(F)C1 [Compound 547],0.0251 ± 0.001 µM
3,COC[C@@H](NC(=O)N1CCCC(F)(F)C1)C(=O)N[C@H](Cc1ccccc1)C(=O)C(=O)NCc1nccs1 [Compound 548],0.4104 ± 0.001 µM
4,COC[C@@H](NC(=O)NC1CC(F)(F)C1)C(=O)N[C@H](Cc1ccccc1)C(=O)C(=O)NCc1nccs1 [Compound 549],0.0212 ± 0.0006 µM
5,COC[C@@H](NC(=O)NC1CCC(F)(F)CC1)C(=O)N[C@H](Cc1ccccc1)C(=O)C(=O)NCc1nccs1 [Compound 551],0.0233 ± 0.0031 µM
6,COC[C@@H](NC(=O)N1CC(F)(F)C(F)(F)C1)C(=O)N[C@H](Cc1ccccc1)C(=O)C(=O)NCc1nccs1 [Compound 552],0.2009 ± 0.0016 µM
7,COC[C@@H](NC(=O)OC1CC(F)(F)C1)C(=O)N[C@H](Cc1ccccc1)C(=O)C(=O)NCc1nccs1 [Compound 553],0.0188 ± 0.0046 µM
8,C[C@@H](NCC1CCC(F)(F)CC1)C(=O)N[C@H](Cc1ccccc1)C(=O)C(=O)NCc1nccs1 [Compound 554],0.8901 ± 0.0013 µM
9,O=C(NCc1nccs1)C(=O)[C@@H](Cc1ccccc1)NC(=O)C1CC1C(=O)NC1CC(F)(F)C1 (stereo partly shown) [Compound 555],0.4773 ± 0.0041 µM
10,CC1(C)C(C(=O)NC2CC(F)(F)C2)C1C(=O)N[C@H](Cc1ccccc1)C(=O)C(=O)NCc1nccs1 (stereo partly shown) [Compound 556],0.2035 ± 0.0006 µM
11,COC[C@@H](NC(=O)C1CCCC(F)(F)C1)C(=O)N[C@H](Cc1ccccc1)C(=O)C(=O)NCc1ccccn1 (stereo partly shown) [Compound 557],0.0261 ± 0.0004 µM
12,COC[C@@H](NC(=O)C1CCCC(F)(F)C1)C(=O)N[C@H](Cc1ccccc1)C(=O)C(=O)NCc1cocn1 (stereo partly shown) [Compound 560],0.0221 ± 0.0007 µM
13,COC[C@@H](NC(=O)C1CCCC(F)(F)C1)C(=O)N[C@H](Cc1ccccc1)C(=O)C(=O)NCc1ncsn1 (stereo partly shown) [Compound 564],0.774 ± 0.0088 µM
14,COC[C@@H](NC(=O)C1CCCC(F)(F)C1)C(=O)N[C@H](Cc1cccc(Cl)c1)C(=O)C(=O)NCc1nccs1 (stereo partly shown) [Compound 566],0.0332 ± 0.0023 µM
15,O=C(NCc1nccs1)C(=O)[C@@H](Cc1ccccc1)NC(=O)[C@@H](CO)NC(=O)C1CCCC(F)(F)C1 (stereo partly shown) [Compound 567],0.0636 ± 0.0029 µM
16,CS(=O)(=O)CC[C@@H](NC(=O)C1CCCC(F)(F)C1)C(=O)N[C@H](Cc1ccccc1)C(=O)C(=O)NCc1nccs1 (stereo partly shown) [Compound 568],0.0707 ± 0.0018 µM
17,CS(=O)(=O)CC[C@@H](NC(=O)CC1CC(F)(F)C1)C(=O)N[C@H](Cc1ccccc1)C(=O)C(=O)NCc1nccs1 [Compound 569],0.0188 ± 0.0009 µM
18,O=C(NCc1nccs1)C(=O)[C@@H](Cc1ccccc1)NC(=O)[C@@H](CO)NC(=O)C1CCCC(F)(F)C1 (stereo partly shown) [Compound 570],0.0406 ± 0.002 µM
